# Legend:
# [1] = target: STK3 (Homo sapiens (Human), UniProt Q13188); assay: ADP-Glo kinase assay, STK3; type: biochemical; conditions: ADP-Glo, 50 μM ATP; read-out: STK3 IC50
# Protocol: (§1) The STK3 kinase assay was performed in 5 μL reaction buffer containing 50 ng recombinant human STK3 protein (full length, SignalChem #S24-10G; Richmond, Canada), 250 μg/mL myelin basic protein (Sigma-Aldrich #M1891; St. Louis, MO, USA), and 50 μM ATP (Sigma-Aldrich #A7699). The STK4 kinase assay was performed in 5 μL reaction buffer containing 50 ng recombinant human STK4 protein (full length, SignalChem #S25-10G), 300 μg/mL Axltide (SignalChem #A16-58), and 50 μM ATP. […] Three experiments were performed, each in triplicate.
# [2] = target: STK4 (Homo sapiens (Human), UniProt Q13043); assay: ADP-Glo kinase assay, STK4; type: biochemical; conditions: ADP-Glo, 50 μM ATP; read-out: STK4 IC50
# Chain of STK4 (Q13043 whole entry): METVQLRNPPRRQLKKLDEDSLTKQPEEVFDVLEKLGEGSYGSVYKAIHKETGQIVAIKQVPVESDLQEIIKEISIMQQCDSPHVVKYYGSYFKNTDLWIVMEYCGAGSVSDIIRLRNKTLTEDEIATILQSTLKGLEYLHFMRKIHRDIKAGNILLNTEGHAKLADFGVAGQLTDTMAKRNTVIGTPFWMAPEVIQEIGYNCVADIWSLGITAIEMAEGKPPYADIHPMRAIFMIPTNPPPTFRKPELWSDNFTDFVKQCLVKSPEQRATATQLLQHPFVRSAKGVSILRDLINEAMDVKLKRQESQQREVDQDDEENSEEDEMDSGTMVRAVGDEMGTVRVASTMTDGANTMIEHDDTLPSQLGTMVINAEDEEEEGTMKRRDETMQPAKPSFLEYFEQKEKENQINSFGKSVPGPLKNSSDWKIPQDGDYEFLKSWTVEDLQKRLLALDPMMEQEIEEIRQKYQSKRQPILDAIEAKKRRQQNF
# Protocol: as §1
# Chain of STK3 (Q13188 whole entry): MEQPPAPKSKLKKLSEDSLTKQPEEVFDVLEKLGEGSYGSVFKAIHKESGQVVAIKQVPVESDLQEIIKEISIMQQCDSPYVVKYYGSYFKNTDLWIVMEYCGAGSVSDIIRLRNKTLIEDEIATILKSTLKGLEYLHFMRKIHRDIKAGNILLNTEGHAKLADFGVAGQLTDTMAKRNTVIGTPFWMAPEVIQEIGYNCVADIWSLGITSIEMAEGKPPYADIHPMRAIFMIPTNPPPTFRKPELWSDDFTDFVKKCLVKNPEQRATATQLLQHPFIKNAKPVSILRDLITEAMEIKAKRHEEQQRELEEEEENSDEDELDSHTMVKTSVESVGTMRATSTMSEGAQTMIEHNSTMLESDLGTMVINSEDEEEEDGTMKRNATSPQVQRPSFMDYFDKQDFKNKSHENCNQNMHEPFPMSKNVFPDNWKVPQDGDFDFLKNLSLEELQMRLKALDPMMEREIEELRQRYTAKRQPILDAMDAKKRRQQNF
SMILES,IC50 [1] [µM],IC50 [2] [µM]
"CN(C)CCNc1ncnc2[nH]cc(-c3cccc(Cl)c3)c12 [Compound 57, N1-(5-(3-chlorophenyl)-7H-pyrrolo[2,3-d]pyrimidin-4-yl)-N2,N2-dimethylethane-1,2-diamine]",> 5,> 5
"COCCNc1ncnc2[nH]cc(-c3cccc(Cl)c3)c12 [Compound 58, 5-(3-chlorophenyl)-N-(2-methoxyethyl)-7H-pyrrolo[2,3-d]pyrimidin-4-amine]",> 5,> 5
"COc1ccccc1CNc1ncnc2[nH]cc(-c3cccc(Cl)c3)c12 [Compound 68, 5-(3-chlorophenyl)-N-(2-methoxybenzyl)-7H-pyrrolo[2,3-d]pyrimidin-4-amine]",1 to 5,1 to 5
"Clc1cccc(-c2c[nH]c3ncnc(NCc4ccncc4)c23)c1 [Compound 71, 5-(3-chlorophenyl)-N-(pyridin-4-ylmethyl)-7H-pyrrolo[2,3-d]pyrimidin-4-amine]",> 5,1 to 5
"COc1ccc(CCNc2ncnc3[nH]cc(-c4cccc(Cl)c4)c23)cc1OC [Compound 72, 5-(3-chlorophenyl)-N-(3,4-dimethoxyphenethyl)-7H-pyrrolo[2,3-d]pyrimidin-4-amine]",> 5,1 to 5
"COc1ccc(CNc2ncnc3[nH]cc(-c4cccc(Cl)c4)c23)c(OC)c1 [Compound 73, 5-(3-chlorophenyl)-N-(2,4-dimethoxybenzyl)-7H-pyrrolo[2,3-d]pyrimidin-4-amine]",> 5,1 to 5
"COc1cccc(CNc2ncnc3[nH]cc(-c4cccc(Cl)c4)c23)c1 [Compound 74, 5-(3-chlorophenyl)-N-(3-methoxybenzyl)-7H-pyrrolo[2,3-d]pyrimidin-4-amine]",> 5,> 5
"Clc1cccc(-c2c[nH]c3ncnc(NCc4cnco4)c23)c1 [Compound 75, 5-(3-chlorophenyl)-N-(oxazol-5-ylmethyl)-7H-pyrrolo[2,3-d]pyrimidin-4-amine]",> 5,> 5
"Clc1cccc(-c2c[nH]c3ncnc(NCc4cnc[nH]4)c23)c1 [Compound 76, N-((1H-imidazol-5-yl)methyl)-5-(3-chlorophenyl)-7H-pyrrolo[2,3-d]pyrimidin-4-amine]",> 5,> 5
"Clc1cccc(-c2c[nH]c3ncnc(NCc4nccs4)c23)c1 [Compound 79, 5-(3-chlorophenyl)-N-(thiazol-2-ylmethyl)-7H-pyrrolo[2,3-d]pyrimidin-4-amine]",> 5,> 5
"CCN1CCCC1CNc1ncnc2[nH]cc(-c3cccc(Cl)c3)c12 (stereo not shown) [Compound 80, 5-(3-chlorophenyl)-N-((1-ethylpyrrolidin-2-yl)methyl)-7H-pyrrolo[2,3-d]pyrimidin-4-amine]",> 5,> 5
"Clc1cccc(-c2c[nH]c3ncnc(N4CCC(N5CCCCC5)CC4)c23)c1 [Compound 81, 4-([1,4′-bipiperidin]-1′-yl)-5-(3-chlorophenyl)-7H-pyrrolo[2,3-d]pyrimidine]",> 5,1 to 5
"CCN(CC)CCNc1ncnc2[nH]cc(-c3cccc(Cl)c3)c12 [Compound 82, N1-(5-(3-chlorophenyl)-7H-pyrrolo[2,3-d]pyrimidin-4-yl)-N2,N2-diethylethane-1,2-diamine]",> 5,> 5
"Clc1cccc(-c2c[nH]c3ncnc(NCCN4CCCC4)c23)c1 [Compound 83, 5-(3-chlorophenyl)-N-(2-(pyrrolidin-1-yl)ethyl)-7H-pyrrolo[2,3-d]pyrimidin-4-amine]",> 5,> 5
"Clc1cccc(-c2c[nH]c3ncnc(NCC4CCCCCC4)c23)c1 [Compound 84, 5-(3-chlorophenyl)-N-(cycloheptylmethyl)-7H-pyrrolo[2,3-d]pyrimidin-4-amine]",> 5,> 5
"Cc1ccc(CNc2ncnc3[nH]cc(-c4cccc(Cl)c4)c23)cc1C [Compound 85, 5-(3-chlorophenyl)-N-(3,4-dimethylbenzyl)-7H-pyrrolo[2,3-d]pyrimidin-4-amine]",> 5,> 5
"Clc1cccc(-c2c[nH]c3ncnc(NCc4ccc(Cl)nc4)c23)c1 [Compound 86, 5-(3-chlorophenyl)-N-((6-chloropyridin-3-yl)methyl)-7H-pyrrolo[2,3-d]pyrimidin-4-amine]",> 5,> 5
"Clc1cccc(-c2c[nH]c3ncnc(N4CCC(c5ccccc5)CC4)c23)c1 [Compound 87, 5-(3-chlorophenyl)-4-(4-phenylpiperidin-1-yl)-7H-pyrrolo[2,3-d]pyrimidine]",> 5,> 5
"Clc1cccc(-c2c[nH]c3ncnc(NCCC(c4ccccc4)c4ccccc4)c23)c1 [Compound 88, 5-(3-chlorophenyl)-N-(3,3-diphenylpropyl)-7H-pyrrolo[2,3-d]pyrimidin-4-amine]",> 5,> 5
"Clc1cccc(-c2c[nH]c3ncnc(N4CCN(c5ccccc5)CC4)c23)c1 [Compound 89, 5-(3-chlorophenyl)-4-(4-phenylpiperazin-1-yl)-7H-pyrrolo[2,3-d]pyrimidine]",> 5,> 5
"Clc1cccc(-c2c[nH]c3ncnc(N4CCC(Cc5ccccc5)CC4)c23)c1 [Compound 90, 4-(4-benzylpiperidin-1-yl)-5-(3-chlorophenyl)-7H-pyrrolo[2,3-d]pyrimidine]",> 5,> 5
"Cc1cccc(CNc2ncnc3[nH]cc(-c4cccc(Cl)c4)c23)c1 [Compound 91, 5-(3-chlorophenyl)-N-(3-methylbenzyl)-7H-pyrrolo[2,3-d]pyrimidin-4-amine]",> 5,> 5
"Clc1cccc(-c2coc3nccc(N4CCOCC4)c23)c1 [Compound 94, 3-(3-chlorophenyl)-4-morpholinofuro[2,3-b]pyridine]",> 5,> 5
"Cn1cc(-c2cccc(Cl)c2)c2c(N3CCOCC3)ncnc21 [Compound 95, 4-(5-(3-chlorophenyl)-7-methyl-7H-pyrrolo[2,3-d]pyrimidin-4-yl)morpholine]",> 5,> 5
"NS(=O)(=O)c1ccc(Nc2nc(N3CCOCC3)c3c(-c4cccc(Cl)c4)c[nH]c3n2)cc1 [Compound 96, 4-((5-(3-chlorophenyl)-4-morpholino-7H-pyrrolo[2,3-d]pyrimidin-2-yl)amino)benzenesulfonamide]",1 to 5,< 1

# Further lines, results first:
IC50 [1] [µM],IC50 [2] [µM],SMILES
< 1,< 1,"CCCNc1ncnc2[nH]cc(-c3cccc(Cl)c3)c12 [Compound 50, 5-(3-chlorophenyl)-N-propyl-7H-pyrrolo[2,3-d]pyrimidin-4-amine]"
< 1,< 1,"CCN(CC)c1ncnc2[nH]cc(-c3cccc(Cl)c3)c12 [Compound 51, 5-(3-chlorophenyl)-N,N-diethyl-7H-pyrrolo[2,3-d]pyrimidin-4-amine]"
< 1,< 1,"CC(C)CNc1ncnc2[nH]cc(-c3cccc(Cl)c3)c12 [Compound 52, 5-(3-chlorophenyl)-N-isobutyl-7H-pyrrolo[2,3-d]pyrimidin-4-amine]"
< 1,< 1,"C=CCNc1ncnc2[nH]cc(-c3cccc(Cl)c3)c12 [Compound 53, N-allyl-5-(3-chlorophenyl)-7H-pyrrolo[2,3-d]pyrimidin-4-amine]"
< 1,< 1,"OCCNc1ncnc2[nH]cc(-c3cccc(Cl)c3)c12 [Compound 54, 2-((5-(3-chlorophenyl)-7H-pyrrolo[2,3-d]pyrimidin-4-yl)amino)ethan-1-ol]"
1 to 5,< 1,"FC(F)(F)CNc1ncnc2[nH]cc(-c3cccc(Cl)c3)c12 [Compound 55, 5-(3-chlorophenyl)-N-(2,2,2-trifluoroethyl)-7H-pyrrolo[2,3-d]pyrimidin-4-amine]"
1 to 5,< 1,"Clc1cccc(-c2c[nH]c3ncnc(NCc4ccn[nH]4)c23)c1 [Compound 59, N-((1H-pyrazol-5-yl)methyl)-5-(3-chlorophenyl)-7H-pyrrolo[2,3-d]pyrimidin-4-amine]"
1 to 5,< 1,"Clc1cccc(-c2c[nH]c3ncnc(NCC4CCOCC4)c23)c1 [Compound 61, 5-(3-chlorophenyl)-N-((tetrahydro-2H-pyran-4-yl)methyl)-7H-pyrrolo[2,3-d]pyrimidin-4-amine]"
< 1,< 1,"Clc1cccc(-c2c[nH]c3ncnc(NCc4ccoc4)c23)c1 [Compound 62, 5-(3-chlorophenyl)-N-(furan-3-ylmethyl)-7H-pyrrolo[2,3-d]pyrimidin-4-amine]"
1 to 5,< 1,"Clc1cccc(-c2c[nH]c3ncnc(NCCc4ccccn4)c23)c1 [Compound 63, 5-(3-chlorophenyl)-N-(2-(pyridin-2-yl)ethyl)-7H-pyrrolo[2,3-d]pyrimidin-4-amine]"
1 to 5,1 to 5,"CC(C)CCNc1ncnc2[nH]cc(-c3cccc(Cl)c3)c12 [Compound 64, 5-(3-chlorophenyl)-N-isopentyl-7H-pyrrolo[2,3-d]pyrimidin-4-amine]"
1 to 5,1 to 5,"CN1CCC(Nc2ncnc3[nH]cc(-c4cccc(Cl)c4)c23)CC1 [Compound 65, 5-(3-chlorophenyl)-N-(1-methylpiperidin-4-yl)-7H-pyrrolo[2,3-d]pyrimidin-4-amine]"
1 to 5,1 to 5,"Clc1cccc(-c2c[nH]c3ncnc(NCCN4CCOCC4)c23)c1 [Compound 66, 5-(3-chlorophenyl)-N-(2-morpholinoethyl)-7H-pyrrolo[2,3-d]pyrimidin-4-amine]"

# From US20250051337A1 (priority 2021, published 2025)
